Patent US5620892A, “Strain of Saccharomyces cerevisiae expressing the gene encoding potassium transporter minK” (priority 1993, dated 1997)

Legend:
[1] = biological target: T1, HminK (Homo sapiens, UniProt P15382, S38G); test: Inhibition of growth in agar, HminK strain; format: cell-based; parameters: key: + indicates compound produced a zone on inhibition; conditions: cultures grown in inducing medium (2% galactose) embedded in agar; scored after 48-hour incubation at 30° C.
T1 construct: mRNA in Xenopus oocytes (A3)
Method: (§1) Cultures of strains containing the pGAL::HminK plasmid or the pGAL::TRK1 plasmid were grown in inducing media (2% galactose) at 30° C. with vigorous aeration. Inhibitors were added to cultures over a range of concentrations. Samples were removed at various intervals and the optical density at 600 nm was determined. Growth measurements were normalized to values obtained for growth in the absence of drug and are plotted as Relative Growth versus concentration (FIG. 6). Similar cultures grown in inducing medium were embedded in agar and assessed for growth in presence of the compounds listed in Table 1. Plates were scored after a 48-hour incubation at 30° C.; "+" denotes growth inhibition.

[2] = biological target: T1, HminK; test: Challenge of the pGAL::HminK-transformed double mutant on agar plates at 100 mM and 0.1 mM KCl; format: cell-based; conditions: clofilium 100 μM; 100 mM and 0.1 mM potassium chloride
Method: (§2) In another experiment, the double mutant was transformed with pGAL vector including either TRK1 or HminK as described above. The transformed strains were then separately challenged with clofilium (100 μM) and dofetilide […] at 100 mM and 0.1 mM of potassium chloride.
(§3) Cultures of K^+ transporter mutant strains containing either pYES2 vector, pGAL::TRK1 or pGAL::HminK plasmids were grown in inducing media (2% galactose) at 30° C. with vigorous aeration. A. Serial dilutions of each culture were spotted onto agar plates containing either 100 mM or 0.1 mM. KCl. B. Serial dilutions of strains containing pGAL::TRK1 or pGAL::HminK plasmids were spotted onto agar plates containing 100 μM clofilium or 1 μM dofetilide at both KCl concentrations. All plates were incubated at 30° C. and scored after 2 days.

[3] = biological target: T1, HminK; test: Potassium ion currents of HminK mRNA transcripts expressed in Xenopus oocytes; format: cell-based; conditions: Xenopus oocytes expressing the HminK transcripts; clofilium 50 μM
Method: For further verification, mRNA transcripts were expressed in Xenopus oocytes. The expression products caused potassium ion currents that are blocked by clofilium (50 μM) and kinetically indistinguishable from HminK currents reported in the literature. […] Ben Efraim et al., Biochemistry 32: 2371-2377 (1993).

[4] = tested on: IKs; conditions: slow component of the delayed rectifier; literature; cited from earlier work
[5] = biological target: T2, TRK1 (Saccharomyces cerevisiae, UniProt P12685); test: Challenge of the pGAL::TRK1-transformed double mutant on agar plates at 100 mM and 0.1 mM KCl; format: cell-based; conditions: clofilium 100 μM; 100 mM and 0.1 mM potassium chloride
T2 sequence (P12685 1-1235): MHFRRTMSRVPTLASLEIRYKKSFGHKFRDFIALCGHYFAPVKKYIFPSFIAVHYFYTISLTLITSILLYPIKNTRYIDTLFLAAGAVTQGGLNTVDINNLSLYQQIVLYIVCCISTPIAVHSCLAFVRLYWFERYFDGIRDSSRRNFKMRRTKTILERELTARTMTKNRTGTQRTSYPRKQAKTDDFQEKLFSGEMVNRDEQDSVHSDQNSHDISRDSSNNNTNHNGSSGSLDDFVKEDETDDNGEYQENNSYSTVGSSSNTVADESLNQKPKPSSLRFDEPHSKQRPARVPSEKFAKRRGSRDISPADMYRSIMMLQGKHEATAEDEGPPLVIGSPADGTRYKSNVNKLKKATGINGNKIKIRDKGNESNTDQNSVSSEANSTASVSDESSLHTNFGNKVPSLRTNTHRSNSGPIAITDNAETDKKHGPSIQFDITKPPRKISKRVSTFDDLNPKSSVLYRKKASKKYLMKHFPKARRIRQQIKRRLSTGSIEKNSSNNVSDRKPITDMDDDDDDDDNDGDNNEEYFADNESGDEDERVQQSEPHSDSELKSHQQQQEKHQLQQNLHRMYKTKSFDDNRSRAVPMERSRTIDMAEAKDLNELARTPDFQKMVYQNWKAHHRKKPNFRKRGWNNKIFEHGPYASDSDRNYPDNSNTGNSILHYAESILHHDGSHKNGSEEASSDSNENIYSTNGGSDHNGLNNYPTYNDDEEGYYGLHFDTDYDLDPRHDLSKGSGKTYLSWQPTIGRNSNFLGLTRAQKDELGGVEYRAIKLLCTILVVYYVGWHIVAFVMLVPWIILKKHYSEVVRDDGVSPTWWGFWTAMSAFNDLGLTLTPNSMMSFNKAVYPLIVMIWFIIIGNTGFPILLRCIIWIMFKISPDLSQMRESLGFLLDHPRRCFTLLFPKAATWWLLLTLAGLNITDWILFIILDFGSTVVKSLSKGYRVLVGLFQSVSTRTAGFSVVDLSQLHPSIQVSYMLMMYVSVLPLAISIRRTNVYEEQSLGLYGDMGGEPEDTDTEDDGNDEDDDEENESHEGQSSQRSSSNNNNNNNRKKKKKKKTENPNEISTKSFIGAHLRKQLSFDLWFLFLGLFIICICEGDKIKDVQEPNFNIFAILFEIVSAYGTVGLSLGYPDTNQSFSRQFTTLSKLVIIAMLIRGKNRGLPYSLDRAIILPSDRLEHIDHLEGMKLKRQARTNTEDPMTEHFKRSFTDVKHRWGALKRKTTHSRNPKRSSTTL
Method: as §2, §3

[6] = tested on: minK; conditions: literature and personal communication; cited from earlier work
[7] = tested on: IKr; conditions: rapid, rectifying component of the delayed rectifier; literature; cited from earlier work
[8] = biological target: T2, TRK1; test: Inhibition of growth in agar, TRK1 strain; format: cell-based; parameters: key: + indicates compound produced a zone on inhibition; conditions: cultures grown in inducing medium (2% galactose) embedded in agar; scored after 48-hour incubation at 30° C.
Method: as §1

Compound	Inhibition in agar HminK strain [1]	Block of potassium uptake in the HminK strain [2]	Block of potassium ion currents [3]	Block of IKs [4]	Block of potassium uptake in the TRK1 strain [5]	Blockage of minK expressed in Xenopus oocytes [6]	Block of IKr [7]	Inhibition in agar TRK1 strain [8]
CC[N+](CC)(CC)CC [TEA Cl]	+	–	–	–	–	–	–	–
CCCCCCC[N+](CC)(CC)CCCCc1ccc(Cl)cc1 [clofilium]	+	blocked potassium uptake in the HminK strain	blocked	blocked	not in the TRK1 strain	blockage	blocked	–
CC(C)NCC(O)c1ccc(NS(C)(=O)=O)cc1 (stereo not drawn) [d-sotalol]	–	–	–	not	–	–	blocked	–
CN(CCOc1ccc(NS(C)(=O)=O)cc1)CCc1ccc(NS(C)(=O)=O)cc1 [dofetilide]	–	–	–	not	–	–	blocked	–
C=C[C@H]1C[N@@]2CC[C@H]1C[C@@H]2[C@@H](O)c1ccnc2ccc(OC)cc12 [quinidine]	+	–	–	–	–	–	–	+
